Square brackets hold non-standard residues; d marks the D form. Ends that are not written are not given here. Peptide text beside a SMILES is read from it.
How the values were obtained:
[1] = Solubility / visual appearance in water, PBS or urea-PBS; type: physicochemical
Description: To attach the peptides to PEG, we selected a thiol-maleimide reaction[43,44] due to its efficiency under mild conditions (Fig. 1a). Therefore, we prepared cysteine-terminated L- and […], or […] and […]8 ^†), for conjugation to maleimide-functionalized 4-arm PEG. […] We note that […] peptides are only partially soluble and form a white dispersion in the 7 M urea 1× PBS solution (Fig. S10 ^†). […] In 1× PBS, while 1.5% (w/v) unconjugated KYFIL forms β-sheets, the conjugates are soluble and we see no evidence of β-sheet formation by infrared (IR) spectroscopy even at 15% ([…] ^†), corresponding to a peptide equivalent concentration of ∼2% (w/v), which exceeds the peptide concentrations in the 1.5% (w/v) formulations of peptide alone. As noted in our previous report on unconjugated KYFIL,[20] we used IR here for secondary structure determination rather than CD because the high peptide concentrations and the presence of salt that promote β-sheet formation also complicate CD spectra acquisition by saturating the detector. […] Moreover, the absorbances are more prominent at higher concentrations (Fig. 2b), signifying the relationship between secondary structure and hydrogel formation.

Proteinase K = biological target: T1, Proteinase K (Parengyodontium album, UniProt P06873); conditions: unconjugated KYFIL peptides; cited from earlier work
T1 construct: purchased Sigma-Aldrich
Description: Given the potential of peptide stereocomplexes to prolong hydrogel lifetime due to enhanced proteolytic stability, we were interested to learn whether the KYFIL stereocomplex cross-links boost the proteolytic stability of polymeric hydrogels. In our prior study with unconjugated KYFIL stereocomplexes, we incubated l-, 1 : 1 L : D-, and D-KYFIL in Proteinase K, an enzyme that is predicted to cleave L-KYFIL between the Y–F, F–I, and I–L residues.[57] We found more than 90% intact peptide in the 1 : 1 L : D-peptide mixtures after incubation with Proteinase K for 72 h, while only ∼35% L-KYFIL rema ...

T1 sequence (P06873 106-384): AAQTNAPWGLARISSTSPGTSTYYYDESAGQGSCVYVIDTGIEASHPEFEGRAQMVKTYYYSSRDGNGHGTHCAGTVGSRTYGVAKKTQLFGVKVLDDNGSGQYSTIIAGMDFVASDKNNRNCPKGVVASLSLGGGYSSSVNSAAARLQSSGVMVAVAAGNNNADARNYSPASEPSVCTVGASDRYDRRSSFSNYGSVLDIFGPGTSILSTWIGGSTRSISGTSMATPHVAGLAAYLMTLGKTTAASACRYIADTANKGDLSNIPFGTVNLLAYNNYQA

solubility in water (in words) [1]	Molecule	intact peptide after incubation with Proteinase K for 72 h (Proteinase K)
soluble	CC[C@@H](C)[C@@H](NC(=O)[C@@H](Cc1ccccc1)NC(=O)[C@@H](Cc1ccc(O)cc1)NC(=O)[C@H](N)CCCCN)C(=O)N[C@H](CC(C)C)C(=O)N[C@H](CS)C(N)=O [D-KYFILC] (H-[dK][dY][dF][dI][dL][dC]-NH2)	–
soluble	KYFILC-NH2 [L-KYFILC]	–
–	L-KYFIL [unconjugated L-peptide KYFIL of the authors' prior study]	~35%
